Measured values: patent publication US9765069B2, “Antimicrobial compounds” (OXFORD UNIVERSITY INNOVATION LIMITED, priority 2012, dated 2017)
Values after ≈ are worked out from the molar mass of the structure shown.

Columns and labels:
H3 = assay: MIC determination (bacteria), strain H3; format: cell-based, H. influenzae; details: Table 1; haemophilus test medium
Description: (§1) MIC determination (bacteria); MICs were determined based on Clinical and Laboratory Standards Institute (CLSI) methodology (Methods for dilution antimicrobial susceptibility tests for bacteria that grow aerobically; Approved Standard—seventh edition. 2006, M7-A7, CLSI, Wayne Pa.) by a 2-fold broth dilution technique in Mueller Hinton (pH7.4 Biorad). For S. pneumoniae, the medium was supplemented with 2.5% laked horse blood. For H. influenzae, the medium was haemophilus test medium (H.T.M.). Overnight cultures were diluted to obtain the final inoculum of 10^5 cfu/well. Incubation was 37° C. overnight in ambient air. The MIC was defined as the lowest concentration which inhibited all visual growth and expressed in μg/ml. For each bacterial species, all of the molecules were tested in the same experiment in order to give a head-to-head comparison.

E1 = assay: MIC determination (bacteria), strain E1; format: cell-based, enterococcus; details: Table 1; 2-fold broth dilution
Description: as §1

P9 = assay: MIC determination (bacteria), strain P9; format: cell-based, S. pneumoniae; details: Table 1; 2-fold broth dilution
Description: as §1

[1] = tested on: human embryonic kidney 293 cells; assay: in vitro toxicities against human embryonic kidney 293 cells; format: cell-based; details: human embryonic kidney 293 cells
Excerpt: (§2) These properties can be determined according to techniques that are well known in the art.

E2 = assay: MIC determination (bacteria), strain E2; format: cell-based, enterococcus; details: Table 1; 2-fold broth dilution
Description: as §1

[2] = tested on: S2 (S. aureus 2, MRSA in vivo); assay: MIC determination (bacteria), strain S2; format: cell-based; details: Table 1; 2-fold broth dilution
Description: as §1

P1 = assay: MIC determination (bacteria), strain P1; format: cell-based, S. pneumoniae; details: Table 1; 2-fold broth dilution
Description: as §1

[3] = tested on: mammalian_red blood cell membrane; assay: In vitro mammalian red blood cell membrane lysis activity; format: cell-based; details: Active or inactive at 100 μM
Excerpt: as §2

S. aureus membrane = assay: In vitro activity in depolarization of S. aureus membrane; format: cell-based; details: read-out: DEP (IC50)
Excerpt: as §2

S1 = assay: MIC determination (bacteria), strain S1; format: cell-based, S. aureus; details: Table 1; 2-fold broth dilution
Description: as §1

P9B = assay: MIC determination (bacteria), strain P9B; format: cell-based, S. pneumoniae; details: Table 1; 2-fold broth dilution
Description: as §1

S4 = assay: MIC determination (bacteria), strain S4; format: cell-based, S. aureus; details: Table 1; 2-fold broth dilution
Description: as §1

S26 = assay: MIC determination (bacteria), strain S26; format: cell-based, S. aureus; details: Table 1; 2-fold broth dilution
Description: as §1

[4] = tested on: human peripheral blood cells; assay: in vitro toxicities human peripheral blood cells; format: cell-based; details: human peripheral blood cells
Excerpt: as §2

H4 = assay: MIC determination (bacteria), strain H4; format: cell-based, H. influenzae; details: Table 1; haemophilus test medium
Description: as §1

E. Coli RNAP = E. Coli RNAP (Escherichia coli, UniProt P0A8T7+P0A8V2); assay: In vitro activity against E. Coli RNAP; format: biochemical
Chain of E. Coli RNAP (P0A8V2 whole entry): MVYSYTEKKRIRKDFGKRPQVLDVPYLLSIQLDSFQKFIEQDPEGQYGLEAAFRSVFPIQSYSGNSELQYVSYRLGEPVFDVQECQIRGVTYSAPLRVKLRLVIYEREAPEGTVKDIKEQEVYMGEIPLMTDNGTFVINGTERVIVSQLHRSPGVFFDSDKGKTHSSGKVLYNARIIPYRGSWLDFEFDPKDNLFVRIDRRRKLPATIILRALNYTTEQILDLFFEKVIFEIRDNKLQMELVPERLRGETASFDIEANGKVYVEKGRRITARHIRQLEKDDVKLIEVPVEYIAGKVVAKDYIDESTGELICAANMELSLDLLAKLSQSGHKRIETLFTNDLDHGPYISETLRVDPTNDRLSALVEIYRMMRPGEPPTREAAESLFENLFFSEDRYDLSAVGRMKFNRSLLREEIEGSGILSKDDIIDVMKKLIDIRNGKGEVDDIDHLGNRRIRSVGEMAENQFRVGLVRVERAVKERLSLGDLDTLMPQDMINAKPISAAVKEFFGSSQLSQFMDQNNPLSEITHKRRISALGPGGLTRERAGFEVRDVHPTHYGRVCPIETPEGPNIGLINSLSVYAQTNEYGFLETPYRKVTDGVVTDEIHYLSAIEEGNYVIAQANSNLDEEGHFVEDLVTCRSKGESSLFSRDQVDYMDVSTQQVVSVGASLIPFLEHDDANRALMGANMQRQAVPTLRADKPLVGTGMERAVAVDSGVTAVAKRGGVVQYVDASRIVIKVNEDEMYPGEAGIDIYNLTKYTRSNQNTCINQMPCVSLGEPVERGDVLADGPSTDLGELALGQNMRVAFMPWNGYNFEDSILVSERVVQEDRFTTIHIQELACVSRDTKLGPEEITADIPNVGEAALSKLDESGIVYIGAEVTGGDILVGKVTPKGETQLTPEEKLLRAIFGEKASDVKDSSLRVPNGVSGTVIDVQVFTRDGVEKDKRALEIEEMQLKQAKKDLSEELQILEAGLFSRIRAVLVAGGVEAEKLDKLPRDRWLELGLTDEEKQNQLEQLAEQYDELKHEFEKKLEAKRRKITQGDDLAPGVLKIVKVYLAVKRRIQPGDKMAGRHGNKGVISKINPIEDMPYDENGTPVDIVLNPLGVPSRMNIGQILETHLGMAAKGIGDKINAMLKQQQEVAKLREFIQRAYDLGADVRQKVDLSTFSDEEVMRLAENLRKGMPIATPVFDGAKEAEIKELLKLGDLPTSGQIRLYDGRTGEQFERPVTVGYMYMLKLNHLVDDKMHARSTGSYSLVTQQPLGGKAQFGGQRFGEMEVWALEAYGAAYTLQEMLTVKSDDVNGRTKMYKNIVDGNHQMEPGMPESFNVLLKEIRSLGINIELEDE
Chain of E. Coli RNAP (P0A8T7 whole entry): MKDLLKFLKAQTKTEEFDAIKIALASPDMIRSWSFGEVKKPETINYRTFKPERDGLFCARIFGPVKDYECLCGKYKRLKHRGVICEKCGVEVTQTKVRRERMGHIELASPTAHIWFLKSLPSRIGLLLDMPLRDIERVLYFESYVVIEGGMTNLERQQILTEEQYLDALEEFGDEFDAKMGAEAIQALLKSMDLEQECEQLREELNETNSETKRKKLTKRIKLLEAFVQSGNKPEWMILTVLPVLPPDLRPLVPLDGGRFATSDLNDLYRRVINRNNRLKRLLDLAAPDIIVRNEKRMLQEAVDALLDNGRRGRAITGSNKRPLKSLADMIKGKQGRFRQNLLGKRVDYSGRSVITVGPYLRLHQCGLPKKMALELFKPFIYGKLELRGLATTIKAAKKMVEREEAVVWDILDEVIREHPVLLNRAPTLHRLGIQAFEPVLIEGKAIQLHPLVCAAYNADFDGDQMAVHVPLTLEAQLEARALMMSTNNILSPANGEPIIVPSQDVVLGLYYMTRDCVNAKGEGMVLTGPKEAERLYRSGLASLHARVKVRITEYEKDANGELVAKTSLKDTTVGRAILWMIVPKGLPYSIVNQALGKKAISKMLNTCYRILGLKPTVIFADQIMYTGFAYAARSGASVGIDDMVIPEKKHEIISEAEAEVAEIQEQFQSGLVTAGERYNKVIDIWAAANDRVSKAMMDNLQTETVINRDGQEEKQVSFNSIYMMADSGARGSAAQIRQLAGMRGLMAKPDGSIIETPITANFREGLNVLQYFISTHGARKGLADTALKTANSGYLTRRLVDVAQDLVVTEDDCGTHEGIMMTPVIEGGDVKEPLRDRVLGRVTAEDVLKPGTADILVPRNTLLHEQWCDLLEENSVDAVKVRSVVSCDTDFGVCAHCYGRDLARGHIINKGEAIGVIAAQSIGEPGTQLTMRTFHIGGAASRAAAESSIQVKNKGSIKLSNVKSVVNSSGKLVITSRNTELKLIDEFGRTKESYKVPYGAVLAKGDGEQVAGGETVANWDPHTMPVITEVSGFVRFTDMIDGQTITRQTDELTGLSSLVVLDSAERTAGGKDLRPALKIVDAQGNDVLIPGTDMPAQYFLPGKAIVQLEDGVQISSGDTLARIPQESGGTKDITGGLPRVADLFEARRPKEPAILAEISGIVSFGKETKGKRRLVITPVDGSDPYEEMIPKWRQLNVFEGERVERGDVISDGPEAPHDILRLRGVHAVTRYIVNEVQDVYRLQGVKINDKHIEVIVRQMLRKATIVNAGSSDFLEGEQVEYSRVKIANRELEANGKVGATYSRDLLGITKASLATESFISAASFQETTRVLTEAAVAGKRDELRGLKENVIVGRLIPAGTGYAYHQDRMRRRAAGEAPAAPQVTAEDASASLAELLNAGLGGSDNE
Chain of E. Coli RNAP (P0A7Z4 whole entry partner): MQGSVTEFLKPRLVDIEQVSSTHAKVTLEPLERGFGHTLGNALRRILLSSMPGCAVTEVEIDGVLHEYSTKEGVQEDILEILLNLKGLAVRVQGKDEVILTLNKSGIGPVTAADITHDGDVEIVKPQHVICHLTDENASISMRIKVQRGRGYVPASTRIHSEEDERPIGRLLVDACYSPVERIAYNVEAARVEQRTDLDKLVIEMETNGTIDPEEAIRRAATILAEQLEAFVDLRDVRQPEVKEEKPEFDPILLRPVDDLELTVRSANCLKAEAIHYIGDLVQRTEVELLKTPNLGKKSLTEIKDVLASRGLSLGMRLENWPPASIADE
Chain of E. Coli RNAP (P0A800 whole entry partner): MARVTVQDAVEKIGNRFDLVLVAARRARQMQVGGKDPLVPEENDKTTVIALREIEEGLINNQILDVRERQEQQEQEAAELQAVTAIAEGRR
Excerpt: as §2

[5] = aqueous solubility at pH 7.4; format: physicochemical; details: aqueous solubility at pH 7.4 (water with 2% DMSO)
Excerpt: as §2

Row | SMILES | MIC H3 (H3) [µg/mL] | MIC E1 (E1) [µg/mL] | MIC P9 (P9) [µg/mL] | Hek293 (LD50, μM) [1] [µM] | MIC E2 (E2) [µg/mL] | MIC S2 [2] [µg/mL] | MIC P1 (P1) [µg/mL] | RBC membrane lysis activity (active/inactive) [3] | IC50 (S. aureus membrane) [µM] | MIC S1 (S1) [µg/mL] | MIC P9B (P9B) [µg/mL] | MIC S4 (S4) [µg/mL] | MIC S26 (S26) [µg/mL] | PMBC (LD50, μM) [4] [µM] | MIC H4 (H4) [µg/mL] | IC50 (E. Coli RNAP) [µM] | SOL [5] [µM]
1 | CCCCCCCC=CC(=O)N1C(=O)C(=C(C)O)C(=O)C1CC(C)C (centres unmarked) [23a] | 64 (≈ 183 µM) | 8 (≈ 22.9 µM) | 1 (≈ 2.86 µM) | 90.9 | 4 (≈ 11.4 µM) | 8 (≈ 22.9 µM) | 2 (≈ 5.72 µM) | Inactive^d | 88 | 8 (≈ 22.9 µM) | 4 (≈ 11.4 µM) | 8 (≈ 22.9 µM) | 16 (≈ 45.8 µM) | 90.9 | 4 (≈ 11.4 µM) | – | –
2 | CNC(=O)[C@@H](C)[C@H]1C(=O)/C(=C(O)/C=C/C(C)=C/[C@@H](C)[C@H]2O[C@@]3(C)O[C@H](C=C[C@@]34CO4)[C@@H]2C)C(=O)N1[C@@H]1CC[C@H](O)[C@H](C)O1 [streptolydigin, reference compound] | – | – | – | – | – | – | – | – | – | – | – | – | – | – | – | 38 | –
3 | CCCCCCCC=CC(=O)N1C(=O)C(=C(O)CCC)C(=O)C1CC(C)C (centres unmarked) [23b] | >64 | 0.25 (≈ 0.662 µM) | 0.12 (≈ 0.318 µM) | 90.9 | <0.06 | 0.25 (≈ 0.662 µM) | 0.25 (≈ 0.662 µM) | Inactive^d | 49.5 | <0.06 | 1 (≈ 2.65 µM) | 0.25 (≈ 0.662 µM) | 0.5 (≈ 1.32 µM) | 90.9 | 2 (≈ 5.3 µM) | – | –
4 | CCCCCCCCCC(O)=C1C(=O)C(CCSC)N(C(=O)CC(C)CC(C)(C)C)C1=O (centres unmarked) [24k] | >64 | 0.5 (≈ 1.07 µM) | 0.12 (≈ 0.257 µM) | 10.1 | 0.25 (≈ 0.535 µM) | 0.5 (≈ 1.07 µM) | 0.25 (≈ 0.535 µM) | Active | 68.8 | 0.5 (≈ 1.07 µM) | 2 (≈ 4.28 µM) | 0.5 (≈ 1.07 µM) | 1 (≈ 2.14 µM) | 90.9 | 64 (≈ 137 µM) | – | >300
5 | CCCCCCCC=CC(=O)N1C(=O)C(=C(O)CCCCC)C(=O)C1CC(C)C (centres unmarked) [23c] | >64 | 0.25 (≈ 0.616 µM) | <0.06 | 30.3 | 0.12 (≈ 0.296 µM) | 0.5 (≈ 1.23 µM) | <0.06 | Inactive^d | 19.6 | 0.25 (≈ 0.616 µM) | 2 (≈ 4.93 µM) | 0.5 (≈ 1.23 µM) | 0.5 (≈ 1.23 µM) | 30.3 | – | – | –
6 | CCCCCCCCCC(O)=C1C(=O)CCN(C(=O)c2ccc(OC)cc2)C1=O [25d] | 64 (≈ 159 µM) | 4 (≈ 9.96 µM) | 2 (≈ 4.98 µM) | 90.9 | 4 (≈ 9.96 µM) | 4 (≈ 9.96 µM) | 2 (≈ 4.98 µM) | Active | 69 | 8 (≈ 19.9 µM) | 8 (≈ 19.9 µM) | 4 (≈ 9.96 µM) | 8 (≈ 19.9 µM) | 90.9 | 8 (≈ 19.9 µM) | – | 150 to 300
